The numbers were not newly measured in US11306114B2, “Process for separation, isolation and characterization of steviol glycosides” (Heartland Consumer Products, LLC, priority 2014, dated 2022), which cites them from elsewhere.

Read-outs that look alike come from different tables or passages of the source.

For series [1] the following is noted: for Sweetness Intensity: relative to an equal weight of sucrose, data from Tanaka, Pure & Appl. Chem.
For series [2] the following is noted: subjective relative ranking; data from Tanaka, Pure & Appl. Chem.
The conditions of series [3]: carbonated beverages (Chang et al. 1983) / general statement.
For series [4] the following is noted: literature statements.

Regarding `C=C1C[C@@]23CC[C@H]4[C@@](C)(CCC[C@@]4(C)C(=O)O)[C@@H]2CC[C@]1(O[C@@H]1O[C@H](CO)[C@@H](O)[C@H](O)[C@H]1O)C3` [steviolmonoside], the “Sweetness Intensity” value in series [1] is 40. The “Sweetness Quality” value in series [2] was −3.

Regarding `C=C1C[C@@]23CC[C@H]4[C@@](C)(CCC[C@@]4(C)C(=O)O[C@@H]4O[C@H](CO)[C@@H](O)[C@H](O)[C@H]4O[C@@H]4O[C@H](CO)[C@@H](O)[C@H](O)[C@H]4O)[C@@H]2CC[C@]1(O[C@@H]1O[C@H](CO)[C@@H](O)[C@H](O[C@@H]2O[C@H](CO)[C@@H](O)[C@H](O)[C@H]2O)[C@H]1O[C@@H]1O[C@H](CO)[C@@H](O)[C@H](O)[C@H]1O)C3` [rebaudioside-D, rebaudioside D], in series [1], the “Sweetness Intensity” value is recorded as 300. The “Sweetness Quality” value in series [2] is given as 3.

For the compound `C=C1C[C@@]23CC[C@H]4[C@@](C)(CCC[C@@]4(C)C(=O)O[C@@H]4O[C@H](CO)[C@@H](O)[C@H](O)[C@H]4O)[C@@H]2CC[C@]1(O[C@@H]1O[C@H](CO)[C@@H](O)[C@H](O)[C@H]1O)C3` [rubusoside], in series [1], the “Sweetness Intensity” value is on record as 115. Moreover, the “Sweetness Quality” value in series [2] is reported as −2.

Consider `C=C1C[C@@]23CC[C@H]4[C@@](C)(CCC[C@@]4(C)C(=O)O[C@@H]4O[C@H](CO)[C@@H](O)[C@H](O)[C@H]4O)[C@@H]2CC[C@]1(O[C@@H]1O[C@H](CO)[C@@H](O)[C@H](O)[C@H]1O[C@@H]1O[C@H](CO)[C@@H](O)[C@H](O)[C@H]1O)C3` [stevioside, 13-[(2-O-β-D-glucopyranosyl-α-D-glucopyranosyl)oxy]-kaur-16-en-18-oic acid β-D-glucopyranosyl ester], for which the “Sweetness Intensity” value in series [1] is 145. The “Sweetness Quality” value in series [2] was 0. In series [3], the “heat and pH stability” value is “heat and pH stability”. Further, the taste attributes result in series [4] was “metallic and bitter notes”.

Consider `C=C1C[C@@]23CC[C@H]4[C@@](C)(CCC[C@@]4(C)C(=O)O)[C@@H]2CC[C@]1(O[C@@H]1O[C@H](CO)[C@@H](O)[C@H](O)[C@H]1O[C@@H]1O[C@H](CO)[C@@H](O)[C@H](O)[C@H]1O)C3` [steviolbioside], for which the “Sweetness Intensity” value in series [1] was 40. Moreover, the “Sweetness Quality” value in series [2] was −3.

Regarding `C=C1C[C@@]23CC[C@H]4[C@@](C)(CCC[C@@]4(C)C(=O)O[C@@H]4O[C@H](CO)[C@@H](O)[C@H](O)[C@H]4O)[C@@H]2CC[C@]1(O[C@@H]1O[C@H](CO)[C@@H](O)[C@H](O)[C@H]1O[C@@H]1O[C@@H](C)[C@H](O)[C@@H](O)[C@H]1O)C3` [dulcoside-A, dulcoside A], the “times sweeter than sucrose” value in series [1] (general statements in text, varies with temperature and viscosity of the carrier medium) is “about 30 times”. In addition, the “Sweetness Intensity” value in series [1] is on record as 70. Further, in series [2], the “Sweetness Quality” value is recorded as −2.

As to rebaudioside B, in series [1], the “Sweetness Intensity” value was 300. Moreover, in series [2], the “Sweetness Quality” value is listed as 3.

As for rebaudioside C [rebaudioside-C], in series [1], the “Sweetness Intensity” value was 200. Also, in series [2], the “Sweetness Quality” value is −1.

With `C=C1C[C@@]23CC[C@H]4[C@@](C)(CCC[C@@]4(C)C(=O)O[C@@H]4O[C@H](CO)[C@@H](O)[C@H](O)[C@H]4O[C@@H]4O[C@H](CO)[C@@H](O)[C@H](O)[C@H]4O)[C@@H]2CC[C@]1(O[C@@H]1O[C@H](CO)[C@@H](O)[C@H](O)[C@H]1O[C@@H]1O[C@H](CO)[C@@H](O)[C@H](O)[C@H]1O)C3` [rebaudioside-E, rebaudioside E], the “Sweetness Intensity” value in series [1] is recorded as 200. Further, the “Sweetness Quality” value in series [2] is reported as 1.

`C=C1C[C@@]23CC[C@H]4[C@@](C)(CCC[C@@]4(C)C(=O)O[C@@H]4O[C@H](CO)[C@@H](O)[C@H](O)[C@H]4O)[C@@H]2CC[C@]1(O[C@@H]1O[C@H](CO)[C@@H](O)[C@H](O[C@@H]2O[C@H](CO)[C@@H](O)[C@H](O)[C@H]2O)[C@H]1O[C@@H]1O[C@H](CO)[C@@H](O)[C@H](O)[C@H]1O)C3` [rebaudioside-A, rebaudioside A]: in series [1], the “Sweetness Intensity” value was 250. For the same compound, the “Sweetness Quality” value in series [2] was 2. Besides, the “heat and pH stability” value in series [3] was “heat and pH stability”. Moreover, the taste attributes entry in series [4] (listed as Rebaudioside A) is “the least astringent, the least bitter, and the least persistent aftertaste”; in series [4] (listed as rebaudioside A) it was “metallic and bitter notes”.
